Measurements taken from ChEMBL document CHEMBL1201862, “PubChem BioAssay data set” (2004).
One block for each compound: values may come before it. Activity calls are given as the source filed them.

Assays:
[1] = target: Voltage-gated inwardly rectifying potassium channel KCNH2 (Homo sapiens, UniProt Q12809); details: Potency;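 note: confirmatory quantitative high-throughput screen measuring inhibition of hERG channel activity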
[2] = system: HEK293; experiment: cells; format: functional, cell-based; details: Homo sapiens
[3] = target: T1, Nuclear receptor subfamily 0 group B member 1 (Homo sapiens, UniProt P51843); experiment: Luminescence-based cell-based high throughput dose response assay for inhibitors of the orphan nuclear receptor subfamily 0, group B, member 1 (DAX1; NR0B1). [Related pubchem assays (depositor defined):AID504766, AID504790]; format: functional
T1 sequence (P51843 whole entry): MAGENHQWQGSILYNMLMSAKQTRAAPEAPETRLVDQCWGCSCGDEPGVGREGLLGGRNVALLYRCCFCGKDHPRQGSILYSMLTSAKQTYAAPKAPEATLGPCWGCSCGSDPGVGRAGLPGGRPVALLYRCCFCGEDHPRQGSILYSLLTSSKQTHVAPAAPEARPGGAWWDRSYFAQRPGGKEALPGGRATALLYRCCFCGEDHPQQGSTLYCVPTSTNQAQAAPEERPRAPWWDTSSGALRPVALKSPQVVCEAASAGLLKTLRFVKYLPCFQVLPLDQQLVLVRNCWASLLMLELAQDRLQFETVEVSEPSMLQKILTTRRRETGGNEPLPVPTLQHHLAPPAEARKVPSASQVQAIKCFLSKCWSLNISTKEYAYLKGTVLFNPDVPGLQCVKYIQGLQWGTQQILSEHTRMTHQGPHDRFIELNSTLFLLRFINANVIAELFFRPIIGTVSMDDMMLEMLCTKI

[4] = MC4R antagonists, dose response, counter-screen for LGR2 antagonist project, cell-based, plate reader, cherry pick (AID 743444); format: functional;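 note: transfected HEK 293 cells stimulated with alpha-MSH peptide; potency of inhibitors of the alpha-MSH evoked signal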
[5] = HepG2 cell cytotoxicity, dose response, cytotoxicity control, plate reader, cherry-pick, antagonist series (AID 743416); format: functional, cell-based
[6] = LGR2 antagonists, dose response, cell-based, HEK293, CRE-luciferase reporter, cherry pick, set 2 (AID 743343); format: functional;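 note: transfected cells were stimulated with diluted bursicon conditioned medium after compound addition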
[7] = Fluorescence polarization-based biochemical high throughput dose response assay for activators of the Protein Kinase A-R2B (PKA-R2B) complex. [Related pubchem assays (depositor defined):AID504700, AID504704, AID504796, AID504797]
[8] = Fluorescence polarization-based biochemical high throughput dose response assay for activators of the Protein Kinase A-R1A (PKA-R1A) complex. [Related pubchem assays (depositor defined):AID504704, AID504707, AID504799, AID504800]
[9] = target: Beta-2 adrenergic receptor (Homo sapiens, UniProt P07550); experiment: beta2AR agonists driving receptor internalization, dose response, cell-based, FAP fluorogen, flow cytometry, cherry pick 1 (AID 588763); format: functional
Chain of Beta-2 adrenergic receptor (P07550 whole entry): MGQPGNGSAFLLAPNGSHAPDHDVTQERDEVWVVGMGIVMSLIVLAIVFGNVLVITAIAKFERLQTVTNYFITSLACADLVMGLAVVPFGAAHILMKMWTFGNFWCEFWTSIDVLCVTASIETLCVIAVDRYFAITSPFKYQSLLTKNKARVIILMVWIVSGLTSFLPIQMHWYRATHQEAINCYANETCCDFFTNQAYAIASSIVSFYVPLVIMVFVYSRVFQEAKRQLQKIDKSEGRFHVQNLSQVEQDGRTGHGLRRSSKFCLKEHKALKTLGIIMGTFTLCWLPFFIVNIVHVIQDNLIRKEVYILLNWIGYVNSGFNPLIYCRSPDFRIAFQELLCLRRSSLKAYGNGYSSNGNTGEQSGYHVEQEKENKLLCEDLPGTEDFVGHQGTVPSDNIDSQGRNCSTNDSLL

Chain of Voltage-gated inwardly rectifying potassium channel KCNH2 (Q12809 whole entry): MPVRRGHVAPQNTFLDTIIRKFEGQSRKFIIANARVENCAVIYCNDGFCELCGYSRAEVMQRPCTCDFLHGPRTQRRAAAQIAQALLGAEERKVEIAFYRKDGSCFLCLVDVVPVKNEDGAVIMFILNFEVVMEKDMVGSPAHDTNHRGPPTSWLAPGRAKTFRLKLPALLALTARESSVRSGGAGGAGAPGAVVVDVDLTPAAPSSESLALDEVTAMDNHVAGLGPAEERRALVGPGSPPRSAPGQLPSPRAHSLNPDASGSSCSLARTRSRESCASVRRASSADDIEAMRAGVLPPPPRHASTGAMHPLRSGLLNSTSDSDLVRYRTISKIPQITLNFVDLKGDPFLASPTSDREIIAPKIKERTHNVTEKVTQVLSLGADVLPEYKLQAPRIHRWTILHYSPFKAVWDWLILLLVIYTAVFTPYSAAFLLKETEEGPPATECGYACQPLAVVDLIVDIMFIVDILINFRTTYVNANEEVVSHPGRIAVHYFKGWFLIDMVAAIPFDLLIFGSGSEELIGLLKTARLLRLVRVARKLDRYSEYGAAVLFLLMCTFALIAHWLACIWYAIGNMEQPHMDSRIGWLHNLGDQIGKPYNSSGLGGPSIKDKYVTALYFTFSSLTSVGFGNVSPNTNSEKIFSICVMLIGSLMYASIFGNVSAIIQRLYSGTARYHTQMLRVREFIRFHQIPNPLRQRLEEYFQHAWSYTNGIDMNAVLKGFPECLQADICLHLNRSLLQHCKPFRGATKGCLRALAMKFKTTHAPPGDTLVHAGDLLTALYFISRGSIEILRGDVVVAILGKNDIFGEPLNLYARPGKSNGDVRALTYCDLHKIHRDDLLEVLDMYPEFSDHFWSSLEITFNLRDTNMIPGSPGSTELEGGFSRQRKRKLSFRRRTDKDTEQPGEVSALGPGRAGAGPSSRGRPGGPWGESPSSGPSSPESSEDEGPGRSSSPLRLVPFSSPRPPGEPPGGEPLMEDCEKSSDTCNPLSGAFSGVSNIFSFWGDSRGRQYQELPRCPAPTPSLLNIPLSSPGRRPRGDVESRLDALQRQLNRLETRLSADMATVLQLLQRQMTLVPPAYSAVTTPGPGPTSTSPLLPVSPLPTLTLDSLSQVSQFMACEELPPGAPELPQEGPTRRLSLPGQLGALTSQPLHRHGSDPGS

Structure (SMILES): NCCNS(=O)(=O)c1cccc2cnccc12
AC50 [1]: 12.6 µM (inconclusive)

Structure (SMILES): Cc1ccc(-c2cnn3c(N4CCOCC4)cc(C)nc23)cc1
IC50 [2]: > 67.5 µM (inactive) | IC50 [3]: > 67.5 µM (inactive) | AC50 [4]: 23.6 µM (active) | AC50 [5]: > 52 µM (inactive) | AC50 [6]: 17.4 µM (active)

EC50 [7]: 0.0505 µM (active) | EC50 [8]: 0.0327 µM (active)
Structure (SMILES): Nc1ncnc2c1nc(Sc1ccc(Cl)cc1)n2[C@@H]1O[C@@H]2COP(=O)(O)O[C@H]2[C@H]1O

EC50 [9]: 9.29 µM (active)
Structure (SMILES): CC(=O)N1c2ccccc2C(C)(c2ccccc2)CC1(C)C (centres undefined)
